Laboratory results reported in ChEMBL document CHEMBL3217598, “Synthesis, modeling, and crystallographic study of 3,4-disubstituted-1,2,5-oxadiazoles and evaluation of their ability to decrease STAT3 activity” (Medchemcomm, 2010).
Activity calls are given as the source filed them. No cut-off for these calls is given here.

What was measured:
[1] = biological target: Signal transducer and activator of transcription 3 (Homo sapiens) (UniProt P40763); experiment: Inhibition of STAT3 in human HCT 116 cells co-transfected with pSTAT3-TA-Luc at 2 uM after 24 hrs by dual luciferase assay; type: cell-based
Sequence of Signal transducer and activator of transcription 3 (Homo sapiens) (P40763 whole entry): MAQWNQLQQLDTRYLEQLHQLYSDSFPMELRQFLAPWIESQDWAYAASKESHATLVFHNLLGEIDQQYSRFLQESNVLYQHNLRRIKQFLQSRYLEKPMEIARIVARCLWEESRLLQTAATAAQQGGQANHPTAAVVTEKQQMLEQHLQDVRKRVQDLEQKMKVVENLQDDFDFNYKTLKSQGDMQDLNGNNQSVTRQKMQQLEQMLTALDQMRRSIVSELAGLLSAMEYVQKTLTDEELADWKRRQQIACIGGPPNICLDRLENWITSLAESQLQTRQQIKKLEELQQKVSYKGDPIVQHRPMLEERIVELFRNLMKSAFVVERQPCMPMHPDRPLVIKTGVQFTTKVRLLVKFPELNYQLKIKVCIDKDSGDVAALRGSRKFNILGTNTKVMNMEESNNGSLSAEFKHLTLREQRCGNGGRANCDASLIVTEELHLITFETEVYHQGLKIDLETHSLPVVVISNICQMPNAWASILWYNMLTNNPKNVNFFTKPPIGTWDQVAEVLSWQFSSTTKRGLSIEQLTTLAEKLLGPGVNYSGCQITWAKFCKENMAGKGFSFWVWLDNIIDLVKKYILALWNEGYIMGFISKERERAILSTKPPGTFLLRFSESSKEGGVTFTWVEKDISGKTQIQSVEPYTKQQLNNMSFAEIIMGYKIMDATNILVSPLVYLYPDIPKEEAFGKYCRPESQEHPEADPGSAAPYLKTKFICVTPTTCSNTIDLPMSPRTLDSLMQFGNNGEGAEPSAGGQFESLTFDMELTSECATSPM

MDA-MB-231 [2] = experiment: Growth inhibition of human MDA-MB-231 cells assessed as cell proliferation at highest concentration after 24 hrs by WST-1 assay; type: functional
MDA-MB-231 [3] = experiment: Inhibition of human MDA-MB-231 cell proliferation at highest concentration after 48 hrs by WST-1 assay; type: functional, cell-based
HCT-116 [4] = experiment: Inhibition of human HCT116 cell proliferation at highest concentration after 48 hrs by WST-1 assay; type: functional, cell-based
SW-620 [5] = experiment: Inhibition of human SW620 cell proliferation at highest concentration after 48 hrs by WST-1 assay; type: functional, cell-based
HCT-116 [6] = experiment: Induction of apoptosis in human HCT116 cells assessed as increase in cleaved caspase-3 level at 10 uM by western blot analysis; type: functional, cell-based
MDA-MB-468 [7] = experiment: Growth inhibition of human MDA-MB-468 cells assessed as cell proliferation at highest concentration after 24 hrs by WST-1 assay; type: functional
HCT-116 [8] = experiment: Growth inhibition of human HCT116 cells assessed as cell proliferation at highest concentration after 24 hrs by WST-1 assay; type: functional
HCT-116 [9] = experiment: Induction of apoptosis in human HCT116 cells assessed as increase in cleaved PARP level at 10 uM by western blot analysis; type: functional, cell-based
MDA-MB-468 [10] = experiment: Inhibition of human MDA-MB-468 cell proliferation at highest concentration after 48 hrs by WST-1 assay; type: functional, cell-based
HCT-116 [11] = experiment: Induction of apoptosis in human HCT116 cells assessed as rounded and floated morphology at 2.5 to 50 uM; type: functional, cell-based
[12] = biological target: Signal transducer and activator of transcription 3 (Homo sapiens) (UniProt P40763); experiment: Inhibition of STAT3 in human HCT 116 cells co-transfected with pSTAT3-TA-Luc after 24 hrs by dual luciferase assay; type: cell-based
SW-620 [13] = experiment: Growth inhibition of human SW620 cells assessed as cell proliferation at highest concentration after 24 hrs by WST-1 assay; type: functional

| Structure (SMILES) | inhibition [1] | further results |
| --- | --- | --- |
| Cc1nonc1NC(=O)Cc1ccccc1 | 6% |  |
| COC(=O)c1nonc1NC(=O)Cc1ccccc1 | 9% |  |
| O=C(NCc1ccccc1)Nc1nonc1-c1ccccc1 | 11% |  |
| O=C(Cc1ccccc1)Nc1nonc1CO | 14% |  |
| O=S(=O)(Cc1ccccc1)Nc1nonc1CO | -2% |  |
| Cc1nonc1NS(=O)(=O)Cc1ccccc1 | 6% |  |
| Cc1nonc1NC(=O)Nc1ccccc1 | 2% |  |
| O=C(Nc1ccccc1)Nc1nonc1-c1ccccc1 | 36% |  |
| O=C(Cc1ccccc1)Nc1nonc1-c1ccccc1 | 11% |  |
| COC(=O)c1nonc1NS(=O)(=O)Cc1ccccc1 | 7% |  |

Continued, in another order:

| inhibition [1] | Structure (SMILES) | further results |
| --- | --- | --- |
| 26% | CC(=O)Oc1ccc(-c2nonc2N(C)C(=O)N(C)c2ccc(C(F)(F)F)cc2)cc1 |  |
| 45% | O=C(Nc1ccc(C(F)(F)F)cc1)Nc1nonc1-c1ccc(Cl)cc1 | growth inhibition (GI) (MDA-MB-231 [2]): 50%; inhibition (MDA-MB-231 [3]): Active; inhibition (HCT-116 [4]): Active; inhibition (SW-620 [5]): Active; Activity (HCT-116 [6]): Active; growth inhibition (GI) (MDA-MB-468 [7]): 50%; growth inhibition (GI) (HCT-116 [8]): 50%; Activity (HCT-116 [9]): Active; inhibition (MDA-MB-468 [10]): Active; Activity (HCT-116 [11]): Active; inhibition [12]: Dose-dependent effect; growth inhibition (GI) (SW-620 [13]): 50% |
| 25% | CN(C(=O)Nc1nonc1-c1ccc(Cl)cc1)c1ccccc1 |  |
| 24% | O=C(Nc1ccc(C(F)(F)F)cc1)Nc1nonc1-c1ccc(O)cc1 |  |
| 51% | CN(C(=O)Nc1nonc1-c1ccc(O)cc1)c1ccc(C(F)(F)F)cc1 |  |
| 8% | CN(C(=O)N(C)c1nonc1-c1ccc(Cl)cc1)c1ccc(C(F)(F)F)cc1 |  |
| 32% | CC(=O)Oc1ccc(-c2nonc2NC(=O)N(C)c2ccc(C(F)(F)F)cc2)cc1 |  |
| -3% | O=S(=O)(Nc1nonc1-c1ccc(Cl)cc1)c1ccc(C(F)(F)F)cc1 |  |
| 21% | CN(C(=O)Nc1nonc1-c1ccc(OCc2ccccc2)cc1)c1ccc(C(F)(F)F)cc1 |  |
| -7% | O=C(Nc1nonc1-c1ccc(Cl)cc1)c1ccc(C(F)(F)F)cc1 |  |
